Data taken from patent US20100113613A1, “CYCLOHEXANE POLYALCOHOL FORMULATION FOR TREATMENT OF DISORDERS OF PROTEIN AGGREGATION” (WARATAH PHARMACEUTICALS, priority 2006, published 2010).

Experiments:
TgCRND8 mice = settings: despite in vitro efficacy
[1] = Brain and CSF levels of inositols after one month ad libitum dosing (GC/MS), Example 2; assay type: in vivo, TgCRND8 mice; settings: TgCRND8 mice, myo-cyclohexanehexyl ad libitum for one month
Method: Study drugs were administered either at 30 mg/kg by oral gavage, or ad libitum by dissolution in drinking water. For administration in drinking water, study drugs were dissolved at 10 mg/ml. The average amount of water taken from the bottle was 3 ml daily per animal. The average mouse weight was 33 g. […] Quantification of scyllo-cyclohexanehexyl and myo-inositol. Scyllo-cyclohexanehexyl and myo-cyclohexanehexyl levels in the brain and CSF were analyzed using gas chromatography/mass spectrometry. D-chiro-inositol was used as an internal control, as it is not present in these biological samples. Derivatization: To increase the volatility and thermal stability of these compounds and to allow for proper peak separation, these samples need to first be derivatized. The derivatization was adapted from a method presented previously (Shetty, H U, et al, 1995, Anal. Biochem. 224:279-85), where the hydroxyl groups of the cyclohexanehexyl were replaced with acetyl groups. […] Similarly, a 5-15 μl sample of CSF was mixed with 1 ml of methanol and allowed to stand at room temperature for 5 minutes. The resulting suspension was centrifuged (5 min, 5000×g) and the supernatant transferred to a glass tube (Teflon-lined cap). […] These samples were then evaporated to complete dryness (Speedvac; 60° C.). […] This mixture was flushed with dry nitrogen, securely capped and the tubes heated (80° C.; 30 min). Following derivatization, samples were cooled (RT) and the unreacted acetylating reagent evaporated using a steady stream of nitrogen gas. The derivatized products were re-dissolved (4 ml; hexane-ethyl acetate (80:20, v/v)) and washed with 1 ml of 5% sodium hydrogencarbonate solution. […] The residue was reconstituted in 100 μl; ethyl acetate. 1 μL of this was injected into the GC/MS system. A similar procedure was followed using stock concentrations of scyllo- and myo-cyclohexanehexols, which were then used to generate concentration curves (in this case the internal standard was derivatized separately and then added). GC/MS was performed using a Perkin Elmer TurboMass Autosystem XL, with a quadrupole mass spectrometer and electron ionization. Gas chromatography was performed using a 30 m×0.25 mm×0.25 μm ZB 5 (5% diphenyl/95% dimethylpolysiloxane) column, using the carrier gas Helium (1 ml/min). Samples were injected with the split set to 50 at 1 min and 0 at 5 min, the injector temperature was set at 300° C. and an initial oven temperature of 80° C. After a hold of 1 min, the temperature was ramped at 45° C./min to 187° C. and held there for 15 min. […] Sample peaks were analyzed using selected-ion monitoring, using m/z 168 for determining cyclohexanehexyl levels in the brain and CSF and m/z 373 for determining cyclohexanehexyl levels in plasma, as monitoring the larger ion reduced noise. […]

[2] = Orally administered tritiated-inositol uptake in plasma and brain (FIG. 16); assay type: in vivo
Method: FIG. 16. Bioavailability of scyllo- (solid line) and myo-inositol (dashed line) in plasma and brain, determined using orally administered tritiated-inositol uptake studies. […] Brain levels also rose rapidly and were maximal at 8 h and 32 h, respectively.

[3] = TgCRND8 (outbred C3H/C57B16 background), mouse, in vivo

With `O[C@H]1[C@H](O)[C@@H](O)[C@H](O)[C@@H](O)[C@H]1O` [myo-inositol, reference compound] the “efficacy for the treatment of TgCRND8 mice” value (TgCRND8 mice) was “not shown to be effective”, the “increase of myo-cyclohexanehexyl level in brain vs untreated” value ([1]; p<0.001) was 20% and the “levels of myo-cyclohexanehexyl in CSF vs untreated” value ([1]; p=0.35) was “did not show any significant changes”. For the same compound, the “time of maximal brain levels” value [2] was 8 h, the “time of peak plasma levels post administration” value [2] was 2 h and the “increase in brain myo inositol levels over untreated controls” value [3] was 1.2 fold.
